Experiments:
Assay in all cases: KiNativ chemical proteomics profiling in HeLa and PC3 cell lysates
[1] = molecular target: T1, selected panels of kinases in HeLa and PC3 cell lysates (Homo sapiens, UniProt P24941); format: binding; details: 10 uM, peptide DLk[…], labeling site Lys2
T1 construct: endogenous in cells; host or cells: HeLa and PC3 cell lysates

[2] = molecular target: T2, selected panels of kinases in HeLa and PC3 cell lysates (Homo sapiens, UniProt Q9NWZ3); format: binding; details: 10 uM, peptide DIk[…], labeling site Lys2
T2 construct: endogenous in cells; host or cells: HeLa and PC3 cell lysates
T2 sequence (Q9NWZ3 1-460): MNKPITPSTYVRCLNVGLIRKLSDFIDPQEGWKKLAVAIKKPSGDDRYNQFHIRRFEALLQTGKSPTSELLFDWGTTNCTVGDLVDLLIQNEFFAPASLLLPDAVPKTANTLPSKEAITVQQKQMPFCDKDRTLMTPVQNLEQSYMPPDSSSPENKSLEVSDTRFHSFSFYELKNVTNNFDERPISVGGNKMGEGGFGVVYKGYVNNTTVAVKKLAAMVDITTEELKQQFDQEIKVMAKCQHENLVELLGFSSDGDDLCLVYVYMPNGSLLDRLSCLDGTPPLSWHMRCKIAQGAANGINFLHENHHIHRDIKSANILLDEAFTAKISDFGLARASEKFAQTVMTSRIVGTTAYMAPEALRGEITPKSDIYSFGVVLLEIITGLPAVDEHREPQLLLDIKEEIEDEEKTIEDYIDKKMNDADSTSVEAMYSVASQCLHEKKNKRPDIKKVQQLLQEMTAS

[3] = system: selected panels of kinases in HeLa and PC3 cell lysates; format: binding, human; details: 10 uM; for % Inhibition PI4KA,PI4KAP2: peptide SGTPMQSAAkAPYLAK, labeling site ATP; for % Inhibiton, MAP3K2,MAP3K3: peptide DIkGANILR; for % Inhibiton, IKKe,TBK1: peptide DIkPGNIMR; for % Inhibiton, JNK1,JNK2,JNK3: peptide DLkPSNIVVK; for % Inhibiton, MAP2K1,MAP2K2: peptide DVkPSNILVNSR
[4] = molecular target: T3, selected panels of kinases in HeLa and PC3 cell lysates (Homo sapiens, UniProt Q53H12); format: binding; details: 10 uM; proteome PC3; peptide […]kGK; labeling site ATP
T3 construct: endogenous in cells; host or cells: HeLa and PC3 cell lysates

[5] = molecular target: T4, selected panels of kinases in HeLa and PC3 cell lysates (Homo sapiens, UniProt P19525); format: binding; details: 10 uM, PKR, peptide DLk[…], labeling site Lys2
T4 construct: endogenous in cells; host or cells: HeLa and PC3 cell lysates
T4 sequence (P19525 whole entry): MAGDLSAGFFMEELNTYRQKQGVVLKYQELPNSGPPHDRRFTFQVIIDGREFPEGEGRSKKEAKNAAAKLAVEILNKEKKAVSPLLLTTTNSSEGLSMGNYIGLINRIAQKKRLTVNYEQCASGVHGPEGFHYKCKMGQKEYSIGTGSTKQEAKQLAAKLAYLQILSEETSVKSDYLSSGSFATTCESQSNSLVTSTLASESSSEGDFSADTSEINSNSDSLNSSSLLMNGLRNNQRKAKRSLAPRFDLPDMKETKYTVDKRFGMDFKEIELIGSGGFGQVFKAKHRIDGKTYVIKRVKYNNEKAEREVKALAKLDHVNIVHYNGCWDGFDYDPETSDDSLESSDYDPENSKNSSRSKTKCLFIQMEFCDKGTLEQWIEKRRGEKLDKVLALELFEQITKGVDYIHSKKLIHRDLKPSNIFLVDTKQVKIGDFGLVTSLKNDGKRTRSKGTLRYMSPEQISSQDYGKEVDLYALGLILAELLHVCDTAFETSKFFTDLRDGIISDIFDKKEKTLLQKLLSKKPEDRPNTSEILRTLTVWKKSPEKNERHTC

[6] = molecular target: T5, selected panels of kinases in HeLa and PC3 cell lysates (Homo sapiens, UniProt Q96S44); format: binding; details: 10 uM, PRPK, peptide FLSGLELVkQGAEAR, labeling site ATP Loop
T5 construct: endogenous in cells; host or cells: HeLa and PC3 cell lysates
T5 sequence (Q96S44 1-253): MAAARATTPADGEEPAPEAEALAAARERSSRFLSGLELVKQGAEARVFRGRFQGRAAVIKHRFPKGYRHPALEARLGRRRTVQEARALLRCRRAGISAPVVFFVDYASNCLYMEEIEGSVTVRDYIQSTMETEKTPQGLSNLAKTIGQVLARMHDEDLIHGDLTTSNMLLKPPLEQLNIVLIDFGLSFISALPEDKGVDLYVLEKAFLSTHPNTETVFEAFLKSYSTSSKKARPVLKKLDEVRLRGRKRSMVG

[7] = molecular target: T6, selected panels of kinases in HeLa and PC3 cell lysates (Homo sapiens, UniProt Q96S38); format: binding; details: 10 uM; RSKL1 domain1; peptide VLGVIDkVLLVMDTR; proteome HEL; labeling site Protein Kinase Domain
T6 construct: endogenous in cells; host or cells: HeLa and PC3 cell lysates

[8] = molecular target: T7, selected panels of kinases in HeLa and PC3 cell lysates (Homo sapiens, UniProt P30291); format: binding; details: 10 uM; Wee1; peptide […]k[…]; proteome HEL; labeling site Lys2
T7 construct: endogenous in cells; host or cells: HeLa and PC3 cell lysates
T7 sequence (P30291 whole entry): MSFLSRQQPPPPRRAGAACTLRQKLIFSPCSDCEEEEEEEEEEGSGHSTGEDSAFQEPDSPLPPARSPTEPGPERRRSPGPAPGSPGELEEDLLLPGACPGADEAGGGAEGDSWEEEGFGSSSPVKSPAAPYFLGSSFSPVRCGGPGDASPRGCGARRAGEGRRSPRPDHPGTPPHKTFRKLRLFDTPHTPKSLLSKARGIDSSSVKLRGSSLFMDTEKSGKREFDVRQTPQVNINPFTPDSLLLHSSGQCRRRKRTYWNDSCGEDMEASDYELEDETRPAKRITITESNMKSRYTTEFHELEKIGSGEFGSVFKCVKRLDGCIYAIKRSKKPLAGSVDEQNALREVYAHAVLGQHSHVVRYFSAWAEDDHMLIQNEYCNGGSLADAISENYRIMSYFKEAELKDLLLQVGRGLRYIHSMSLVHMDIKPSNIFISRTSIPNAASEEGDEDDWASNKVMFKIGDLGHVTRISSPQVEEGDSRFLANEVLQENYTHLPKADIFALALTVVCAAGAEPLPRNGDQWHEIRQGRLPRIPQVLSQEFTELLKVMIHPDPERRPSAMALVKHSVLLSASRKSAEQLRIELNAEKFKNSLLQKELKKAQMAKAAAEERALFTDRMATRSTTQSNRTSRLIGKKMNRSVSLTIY

[9] = molecular target: T8, selected panels of kinases in HeLa and PC3 cell lysates (Homo sapiens, UniProt Q96GX5); format: binding; details: 10 uM; proteome HEL; peptide LYAVkVVK; labeling site Lys1
T8 construct: endogenous in cells; host or cells: HeLa and PC3 cell lysates

[10] = molecular target: T9, selected panels of kinases in HeLa and PC3 cell lysates (Homo sapiens, UniProt O75460); format: binding; details: 10 uM; proteome HEL; peptide DLk[…]; labeling site Lys2
T9 construct: endogenous in cells; host or cells: HeLa and PC3 cell lysates
T9 sequence (O75460 19-977): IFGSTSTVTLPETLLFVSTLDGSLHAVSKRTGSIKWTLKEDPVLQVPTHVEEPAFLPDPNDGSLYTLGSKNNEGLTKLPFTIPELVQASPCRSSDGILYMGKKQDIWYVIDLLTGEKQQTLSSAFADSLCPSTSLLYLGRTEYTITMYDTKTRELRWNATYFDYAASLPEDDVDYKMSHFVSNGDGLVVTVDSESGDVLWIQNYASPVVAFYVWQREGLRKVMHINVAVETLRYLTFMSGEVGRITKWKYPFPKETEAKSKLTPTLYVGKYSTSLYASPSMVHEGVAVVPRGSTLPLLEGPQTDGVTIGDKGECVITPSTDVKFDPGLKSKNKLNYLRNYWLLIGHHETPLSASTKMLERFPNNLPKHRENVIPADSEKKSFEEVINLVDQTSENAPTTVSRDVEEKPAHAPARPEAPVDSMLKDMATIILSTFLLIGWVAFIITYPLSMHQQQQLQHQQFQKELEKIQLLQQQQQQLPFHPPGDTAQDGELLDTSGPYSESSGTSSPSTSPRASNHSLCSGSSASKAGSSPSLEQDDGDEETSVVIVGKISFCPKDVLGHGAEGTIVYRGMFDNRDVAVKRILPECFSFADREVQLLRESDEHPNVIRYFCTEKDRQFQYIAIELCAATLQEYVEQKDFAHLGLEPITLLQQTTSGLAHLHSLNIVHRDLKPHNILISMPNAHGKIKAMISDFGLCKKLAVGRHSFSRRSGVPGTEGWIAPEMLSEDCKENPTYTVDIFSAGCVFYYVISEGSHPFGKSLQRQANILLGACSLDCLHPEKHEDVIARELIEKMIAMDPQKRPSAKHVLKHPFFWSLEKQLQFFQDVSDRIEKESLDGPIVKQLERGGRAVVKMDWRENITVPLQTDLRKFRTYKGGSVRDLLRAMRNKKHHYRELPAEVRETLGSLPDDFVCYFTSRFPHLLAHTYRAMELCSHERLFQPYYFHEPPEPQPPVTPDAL

[11] = molecular target: T10, selected panels of kinases in HeLa and PC3 cell lysates (Homo sapiens, UniProt O60307); format: binding; details: 10 uM, peptide DLk[…], labeling site Lys2
T10 construct: endogenous in cells; host or cells: HeLa and PC3 cell lysates
T10 sequence (O60307 whole entry): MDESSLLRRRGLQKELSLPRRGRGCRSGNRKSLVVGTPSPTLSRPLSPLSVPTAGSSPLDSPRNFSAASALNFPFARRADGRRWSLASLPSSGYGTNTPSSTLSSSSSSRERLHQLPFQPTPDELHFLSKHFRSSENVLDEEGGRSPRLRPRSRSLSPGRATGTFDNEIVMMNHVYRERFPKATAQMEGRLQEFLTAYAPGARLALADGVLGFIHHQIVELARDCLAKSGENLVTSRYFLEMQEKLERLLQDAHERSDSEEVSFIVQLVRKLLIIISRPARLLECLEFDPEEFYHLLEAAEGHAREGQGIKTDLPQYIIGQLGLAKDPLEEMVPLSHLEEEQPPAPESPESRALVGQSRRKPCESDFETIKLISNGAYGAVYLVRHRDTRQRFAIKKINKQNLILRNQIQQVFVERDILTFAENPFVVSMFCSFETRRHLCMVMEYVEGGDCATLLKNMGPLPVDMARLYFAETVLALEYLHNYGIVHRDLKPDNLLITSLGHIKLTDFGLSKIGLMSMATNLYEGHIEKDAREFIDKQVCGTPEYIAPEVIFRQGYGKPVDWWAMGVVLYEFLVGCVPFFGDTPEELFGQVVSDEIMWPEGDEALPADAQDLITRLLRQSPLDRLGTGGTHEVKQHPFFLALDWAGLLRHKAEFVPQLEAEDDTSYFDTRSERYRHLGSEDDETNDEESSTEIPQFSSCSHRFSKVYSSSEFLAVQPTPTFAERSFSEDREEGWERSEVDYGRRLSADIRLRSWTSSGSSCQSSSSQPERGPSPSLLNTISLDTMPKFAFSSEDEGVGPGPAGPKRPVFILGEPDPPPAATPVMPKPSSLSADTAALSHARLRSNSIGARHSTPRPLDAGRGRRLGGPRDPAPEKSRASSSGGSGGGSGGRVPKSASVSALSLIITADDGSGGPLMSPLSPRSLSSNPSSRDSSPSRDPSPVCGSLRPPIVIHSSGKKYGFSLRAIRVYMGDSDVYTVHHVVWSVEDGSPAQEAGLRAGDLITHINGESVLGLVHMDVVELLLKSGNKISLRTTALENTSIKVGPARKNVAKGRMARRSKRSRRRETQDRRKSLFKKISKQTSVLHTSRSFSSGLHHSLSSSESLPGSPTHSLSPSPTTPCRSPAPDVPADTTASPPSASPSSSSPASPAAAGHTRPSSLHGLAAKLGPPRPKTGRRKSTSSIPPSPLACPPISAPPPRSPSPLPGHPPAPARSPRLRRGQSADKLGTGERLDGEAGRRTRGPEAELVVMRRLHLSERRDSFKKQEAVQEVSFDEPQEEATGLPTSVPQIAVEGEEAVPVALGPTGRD

[12] = molecular target: T11, selected panels of kinases in HeLa and PC3 cell lysates (Homo sapiens, UniProt O60674); format: binding; details: 10 uM; proteome HEL; peptide IGDFGLTk[…]; labeling site Activation Loop
T11 construct: endogenous in cells; host or cells: HeLa and PC3 cell lysates

[13] = molecular target: T12, selected panels of kinases in HeLa and PC3 cell lysates (Homo sapiens, UniProt P54760); format: binding; details: 10 uM; proteome PC3; peptide […]kIPIR; labeling site Activation Loop
T12 construct: endogenous in cells; host or cells: HeLa and PC3 cell lysates

[14] = molecular target: T13, selected panels of kinases in HeLa and PC3 cell lysates (Homo sapiens, UniProt Q96J92); format: binding; details: 10 uM; Wnk4; peptide DLk[…]; proteome PC3; labeling site Lys2
T13 construct: endogenous in cells; host or cells: HeLa and PC3 cell lysates
T13 sequence (Q96J92 whole entry): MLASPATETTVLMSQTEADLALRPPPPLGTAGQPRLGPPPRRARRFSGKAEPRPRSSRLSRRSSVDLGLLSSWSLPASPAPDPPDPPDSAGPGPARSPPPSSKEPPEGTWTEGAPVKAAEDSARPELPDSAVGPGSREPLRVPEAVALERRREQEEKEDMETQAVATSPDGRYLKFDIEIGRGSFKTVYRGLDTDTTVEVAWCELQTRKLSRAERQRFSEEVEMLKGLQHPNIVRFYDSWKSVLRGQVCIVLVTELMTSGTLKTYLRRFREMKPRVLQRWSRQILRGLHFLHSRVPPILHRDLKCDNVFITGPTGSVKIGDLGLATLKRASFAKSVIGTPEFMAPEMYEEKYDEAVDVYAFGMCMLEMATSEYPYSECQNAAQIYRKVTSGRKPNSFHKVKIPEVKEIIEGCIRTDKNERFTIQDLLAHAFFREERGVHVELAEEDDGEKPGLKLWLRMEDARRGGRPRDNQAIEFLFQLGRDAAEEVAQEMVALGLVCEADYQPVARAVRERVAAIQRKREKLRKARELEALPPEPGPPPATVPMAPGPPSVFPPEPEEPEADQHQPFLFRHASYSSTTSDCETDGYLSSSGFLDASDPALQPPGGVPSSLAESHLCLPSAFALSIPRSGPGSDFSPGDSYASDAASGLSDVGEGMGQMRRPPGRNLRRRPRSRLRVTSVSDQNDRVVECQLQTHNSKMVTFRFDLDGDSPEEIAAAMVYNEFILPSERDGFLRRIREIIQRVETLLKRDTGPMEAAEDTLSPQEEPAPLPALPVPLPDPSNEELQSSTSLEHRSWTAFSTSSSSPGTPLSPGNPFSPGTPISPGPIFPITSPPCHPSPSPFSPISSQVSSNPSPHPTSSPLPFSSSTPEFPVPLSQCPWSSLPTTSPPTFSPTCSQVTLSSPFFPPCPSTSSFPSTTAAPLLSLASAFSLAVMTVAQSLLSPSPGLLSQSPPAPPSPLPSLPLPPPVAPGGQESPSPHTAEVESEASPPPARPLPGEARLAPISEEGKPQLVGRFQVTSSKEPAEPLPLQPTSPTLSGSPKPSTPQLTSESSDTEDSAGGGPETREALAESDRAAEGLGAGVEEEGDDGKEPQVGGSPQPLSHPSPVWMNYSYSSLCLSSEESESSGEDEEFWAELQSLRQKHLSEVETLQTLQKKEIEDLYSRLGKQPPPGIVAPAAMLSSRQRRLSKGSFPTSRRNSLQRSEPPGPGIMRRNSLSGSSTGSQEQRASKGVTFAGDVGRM

[15] = peptide DIk[…], proteome HEL, labeling site Lys2
[16] = peptide DIk[…], proteome PC3, labeling site Lys2
[17] = proteome HEL, labeling site Lys2
[18] = proteome HEL, peptide DLk[…], labeling site Lys2
[19] = proteome PC3, labeling site Lys2
[20] = proteome PC3, peptide DIk[…], labeling site Lys2
[21] = proteome PC3, peptide DLk[…], labeling site Lys2

COc1cc(C(=O)N2CCC(N3CCN(C)CC3)CC2)ccc1Nc1ncc2c(n1)N(C1CCCC1)c1ccccc1C(=O)N2C [Compound 25, 11-cyclopentyl-2-((2-methoxy-4-(4-(4-methylpiperazin-1-yl)piperidine-1-carbonyl)phenyl)amino)-5-methyl-5H-benzo[e]pyrimido[5,4-b][1,4]diazepin-6(11H)-one]
% Inhibiton, CDK2 ([1]; proteome HEL): 9.4% | % Inhibiton, CDK2 ([1]; proteome PC3): 5.0% | % Inhibiton, IRAK4 ([2]; proteome HEL): 13.4% | % Inhibiton, IRAK4 ([2]; proteome PC3): -7.4% | % Inhibition PI4KA,PI4KAP2 ([3]; proteome HEL): 23.7% | % Inhibition PI4KA,PI4KAP2 ([3]; proteome PC3): -7.2% | % Inhibition PKCa,PKCb ([3]; PKCa,PKCb, peptide DLk[…], proteome PC3, labeling site Lys2): 16.4% | % Inhibition PKD1,PKD2 ([3]; PKD1,PKD2, peptide NIVHCDLk[…], proteome HEL, labeling site Lys2): -30.1% | % Inhibition ROCK1,ROCK2 ([3]; ROCK1,ROCK2, peptide DVkPDNMLLDK, proteome PC3, labeling site Lys2): 5.7% | % Inhibition RSK1,RSK2 domain1 ([3]; RSK1,RSK2 domain1, peptide DLk[…], proteome HEL, labeling site Lys2): -6.2% | % Inhibition RSK1,RSK4 domain1 ([3]; RSK1,RSK4 domain1, peptide VLGQGSFGkVFLVR, proteome HEL, labeling site ATP Loop): -4.9% | % Inhibition SRPK1,SRPK2 ([3]; SRPK1,SRPK2, peptide FVAMkVVK, proteome PC3, labeling site Lys1): -2.0% | % Inhibition TAO1,TAO3 [3, 15]: 21.0% | % Inhibition TAO1,TAO3 [3, 16]: -5.2% | % Inhibition Wnk1,Wnk2,Wnk3 ([3]; Wnk1,Wnk2,Wnk3, peptide DLk[…], proteome HEL, labeling site Lys2): 9.6% | % Inhibition Wnk1,Wnk2,Wnk4 ([3]; Wnk1,Wnk2,Wnk4, peptide IGDLGLATLkR, proteome PC3, labeling site Activation Loop): -9.4% | % Inhibition ZC1/HGK,ZC2/TNIK,ZC3/MINK [3, 15]: 10.0% | % Inhibition ZC1/HGK,ZC2/TNIK,ZC3/MINK [3, 16]: -6.5% | % Inhibition p70S6K,p70S6Kb ([3]; p70S6K,p70S6Kb, peptide GGYGkVFQVR, proteome PC3, labeling site ATP Loop): -1.5% | % Inhibiton, MAP3K2,MAP3K3 [3, 17]: 14.4% | % Inhibiton, IKKe,TBK1 [3, 17]: 18.2% | % Inhibiton, NEK6,NEK7 ([3]; proteome HEL, peptide DIk[…], labeling site Lys2): 6.9% | % Inhibiton, JNK1,JNK2,JNK3 [3, 17]: 33.5% | % Inhibiton, AMPKa1,AMPKa2 [3, 18]: 9.6% | % Inhibiton, MARK2,MARK3 [3, 18]: 9.5% | % Inhibiton, MAST2,MAST4 [3, 18]: 28.2% | % Inhibiton, p38d,p38g [3, 18]: 12.3% | % Inhibiton, MAP2K1,MAP2K2 [3, 17]: -0.9% | % Inhibiton, MYO3A,MYO3B ([3]; proteome HEL, peptide DVk[…], labeling site Lys2): -3.3% | % Inhibiton, BMX,BTK ([3]; proteome HEL, peptide GQYDVAIkMIK, labeling site Lys1): ~43.0% | % Inhibiton, MAP3K5,MAP3K6,MAP3K7 ([3]; proteome HEL, peptide IAIkEIPERDSR, labeling site Lys1): -4.3% | % Inhibiton, KSR1,KSR2 ([3]; proteome HEL, peptide SkNVFYDNGK, labeling site Protein Kinase Domain): 6.2% | % Inhibiton, AMPKa1,AMPKa2 ([3]; proteome HEL, peptide VAVkILNR, labeling site Lys1): 10.9% | % Inhibiton, MSK1,MSK2 domain1 ([3]; proteome HEL, peptide VLGTGAYGkVFLVR, labeling site ATP Loop): -9.5% | % Inhibiton, ABL,ARG ([3]; proteome HEL, peptide […]kFPIK, labeling site Activation Loop): 17.5% | % Inhibiton, MAP3K2,MAP3K3 [3, 19]: -0.6% | % Inhibiton, IKKe,TBK1 [3, 19]: 11.0% | % Inhibiton, MST1,MST2 [3, 20]: 8.8% | % Inhibiton, MST4,YSK1 [3, 20]: 1.0% | % Inhibiton, NEK6,NEK7 [3, 20]: -5.0% | % Inhibiton, CaMK2a,CaMK2b,CaMK2d,CaMK2g ([3]; proteome PC3, peptide DLkPENLLLASK, labeling site Lys2): -1.1% | % Inhibiton, JNK1,JNK2,JNK3 [3, 19]: 30.3% | % Inhibiton, AMPKa1,AMPKa2 [3, 21]: 16.4% | % Inhibiton, CDK11,CDK8 [3, 21]: 8.9% | % Inhibiton, MARK2,MARK3 [3, 21]: 11.6% | % Inhibiton, p38d,p38g [3, 21]: -6.8% | % Inhibiton, MAP2K1,MAP2K2 [3, 19]: -0.2% | % Inhibiton, CK1d,CK1e ([3]; proteome PC3, peptide DVk[…], labeling site Lys2): -16.9% | % Inhibiton, MARK3,MARK4 ([3]; proteome PC3, peptide EVAIkIIDK, labeling site Lys1): -5.2% | % Inhibiton, FYN,SRC,YES ([3]; proteome PC3, peptide QGAk[…], labeling site Activation Loop): -32.2% | % Inhibiton, AMPKa1,AMPKa2 ([3]; proteome PC3, peptide VAVkILNR, labeling site Lys1): 14.9% | % Inhibiton, AGK [4]: 1.8% | % Inhibition PKR ([5]; proteome HEL): 6.1% | % Inhibition PKR ([5]; proteome PC3): -3.4% | % Inhibition PRPK ([6]; proteome HEL): -8.1% | % Inhibition PRPK ([6]; proteome PC3): -11.3% | % Inhibition RSKL1 domain1 [7]: ~75.1% | % Inhibition Wee1 [8]: 11.1% | % Inhibiton, MASTL [9]: 14.5% | % Inhibiton, IRE1 [10]: -1.8% | % Inhibiton, MAST3 ([11]; proteome HEL): 0.5% | % Inhibiton, MAST3 ([11]; proteome PC3): -6.8% | % Inhibiton, JAK2 domain2 [12]: -9.0% | % Inhibiton, EphB4 [13]: -13.0% | % Inhibition Wnk4 [14]: -16.3%
